Results from the Kinase Knowledgebase extract (Sharma et al. 2016).

molecular target: MAPK14 (UniProt Q16539); test: Inhibition of MAPK14 Kinase Activity
Sequence (Q16539 whole entry, looked up): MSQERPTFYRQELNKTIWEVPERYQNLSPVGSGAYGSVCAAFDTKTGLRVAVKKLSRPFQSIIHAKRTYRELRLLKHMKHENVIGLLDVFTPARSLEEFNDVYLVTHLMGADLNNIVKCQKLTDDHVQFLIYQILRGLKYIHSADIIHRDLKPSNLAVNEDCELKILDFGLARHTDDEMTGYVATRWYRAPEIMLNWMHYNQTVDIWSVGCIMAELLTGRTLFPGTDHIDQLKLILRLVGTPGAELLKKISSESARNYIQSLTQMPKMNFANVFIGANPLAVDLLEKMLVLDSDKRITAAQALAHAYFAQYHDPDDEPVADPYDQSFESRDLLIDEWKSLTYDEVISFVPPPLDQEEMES

IC50, < 10 µM:
Cc1ccc(C(=O)NC2CC2)cc1-c1ccc2c(CN3CCOCC3)noc2c1
Cc1c(F)cc(C(=O)NC2CC2)cc1-c1ccc2[nH]nc(C)c2c1
CCCNC(=O)Cn1ncc2cc(-c3cc(C(=O)NC4CC4)ccc3C)ccc21
Cc1ccccc1S(=O)(=O)n1ncc2cc(-c3cc(C(=O)NC4CC4)cc(F)c3C)ccc21
Cc1ccc(C(=O)NC2CC2)cc1-c1ccc2c(cnn2S(=O)(=O)c2ccccc2F)c1
CCCNC(=O)Cn1ncc2cc(-c3cc(C(=O)NC4CC4)cc(F)c3C)ccc21
Cc1c(F)cc(C(=O)NC2CC2)cc1-c1ccc2c(cnn2S(=O)(=O)c2ccc(C#N)cc2)c1
Cc1ccc(C(=O)Nc2nccs2)cc1-c1ccc2c(C3CCNCC3)noc2c1
Cc1ccc(C(=O)Nc2nccs2)cc1-c1ccc2c(C)noc2c1
CCCS(=O)(=O)n1ncc2cc(-c3cc(C(=O)NC4CC4)ccc3C)ccc21
Cc1ccc(C(=O)Nc2cccc(N3CCOCC3)c2)cc1-c1ccc2c(C3CCNCC3)noc2c1
Cc1c(F)cc(C(=O)NC2CC2)cc1-c1ccc2c(cnn2S(=O)(=O)c2ccccc2)c1
Cc1c(F)cc(C(=O)NC2CC2)cc1-c1ccc2c(cnn2S(=O)(=O)c2cccc(F)c2)c1
Cc1ccc(NC(=O)c2ccnc(N3CCCC3)c2)cc1-c1ccc2c(C3CCNCC3)noc2c1
CNC(=O)Cc1noc2cc(-c3cc(C(=O)NC4CC4)ccc3C)ccc12
Cc1ccc(C(=O)Nc2ccnc(N3CCCC3)c2)cc1-c1ccc2c(C)noc2c1
Cc1noc(C)c1S(=O)(=O)n1ncc2cc(-c3cc(C(=O)NC4CC4)cc(F)c3C)ccc21
CC(=O)c1ccc(S(=O)(=O)n2ncc3cc(-c4cc(C(=O)NC5CC5)ccc4C)ccc32)cc1
Cc1ccc(C(=O)NC2CC2)cc1-c1ccc2c(cnn2CC(=O)NCC(C)(C)C)c1
Cc1ccc(C(=O)NC2CC2)cc1-c1ccc2c(S(=O)(=O)c3ccc(F)cc3)n[nH]c2c1
Cc1ccc(C(=O)NC2CC2)cc1-c1ccc2c(cnn2S(=O)(=O)c2ccccc2[N+](=O)[O-])c1
Cc1c(F)cc(C(=O)NC2CC2)cc1-c1ccc2c(cnn2S(=O)(=O)c2ccc3c(c2)CCO3)c1
Cc1c(F)cc(C(=O)NC2CC2)cc1-c1ccc2c(cnn2S(=O)(=O)C2CC2)c1
Cc1c(F)cc(C(=O)NC2CC2)cc1-c1ccc2[nH]ncc2c1
Cc1ccc(C(=O)NC2CC2)cc1-c1ccc2c(C)noc2c1
Cc1ccc(C(=O)NC2CC2)cc1-c1ccc2c(C3CCNCC3)noc2c1
Cc1c(F)cc(C(=O)NC2CC2)cc1-c1ccc2c(c1)c(C)nn2S(=O)(=O)c1cccs1
CNC(=O)c1noc2cc(-c3cc(C(=O)NC4CC4)cc(F)c3C)ccc12
Cc1ccc(CNC(=O)Cn2ncc3cc(-c4cc(C(=O)NC5CC5)cc(F)c4C)ccc32)cc1
Cc1c(F)cc(C(=O)NC2CC2)cc1-c1ccc2c(cnn2CC(=O)NCC2CC2)c1
Cc1ccc(C(=O)NC2CC2)cc1-c1ccc2c(cnn2S(=O)(=O)c2cccs2)c1
Cc1ccc(C(=O)NC2CC2)cc1-c1ccc2c(cnn2S(=O)(=O)Cc2ccccc2)c1
CCCCc1ccc(S(=O)(=O)n2ncc3cc(-c4cc(C(=O)NC5CC5)cc(F)c4C)ccc32)cc1
COc1ccc(S(=O)(=O)n2ncc3cc(-c4cc(C(=O)NC5CC5)cc(F)c4C)ccc32)cc1
Cc1c(F)cc(C(=O)NC2CC2)cc1-c1ccc2c(C(=O)NC3CC3)noc2c1
COc1cccc(S(=O)(=O)n2ncc3cc(-c4cc(C(=O)NC5CC5)ccc4C)ccc32)c1
CNC(=O)c1ccc(CNC(=O)Cn2ncc3cc(-c4cc(C(=O)NC5CC5)ccc4C)ccc32)cc1
Cc1ccc(C(=O)NC2CC2)cc1-c1ccc2c(cnn2S(=O)(=O)c2ccc(F)c(F)c2)c1
COc1cccc(NC(=O)c2ccc(C)c(-c3ccc4c(C5CCNCC5)noc4c3)c2)c1
Cc1c(F)cc(C(=O)NC2CC2)cc1-c1ccc2c(cnn2S(=O)(=O)c2ccsc2)c1
COc1cccc(S(=O)(=O)n2ncc3cc(-c4cc(C(=O)NC5CC5)cc(F)c4C)ccc32)c1
Cc1ccc(C(=O)NC2CC2)cc1-c1ccc2c(cnn2S(=O)(=O)c2ccc(C(F)(F)F)cc2)c1
Cc1ccc(NC(=O)c2ccoc2)cc1-c1ccc2c(C3CCNCC3)noc2c1
CCc1ccc(S(=O)(=O)n2ncc3cc(-c4cc(C(=O)NC5CC5)cc(F)c4C)ccc32)cc1
Cc1ccc(C(=O)NC2CC2)cc1-c1ccc2c(cnn2S(=O)(=O)c2c(C)noc2C)c1
CCCCS(=O)(=O)n1ncc2cc(-c3cc(C(=O)NC4CC4)cc(F)c3C)ccc21
Cc1c(F)cc(C(=O)NC2CC2)cc1-c1ccc2c(cnn2S(=O)(=O)c2ccc(F)c(F)c2)c1
Cc1ccc(C(=O)NC2CC2)cc1-c1ccc2c(CC(=O)NCCO)noc2c1
Cc1ccc(S(=O)(=O)n2ncc3cc(-c4cc(C(=O)NC5CC5)cc(F)c4C)ccc32)cc1
Cc1c(F)cc(C(=O)NC2CC2)cc1-c1ccc2c(cnn2S(C)(=O)=O)c1
Cc1ccc(NC(=O)c2ccnc(N3CCCC3)c2)cc1-c1ccc2onc(C)c2c1
Cc1c(F)cc(C(=O)NC2CC2)cc1-c1ccc2c(cnn2S(=O)(=O)c2ccccc2F)c1
Cc1ccc(C(=O)Nc2nncs2)cc1-c1ccc2c(C3CCNCC3)noc2c1
COc1ccc(CNC(=O)Cn2ncc3cc(-c4cc(C(=O)NC5CC5)ccc4C)ccc32)cc1
